The source of these data is US11352340B2, “Pyridine and pyridimine compounds as PI3K-gamma inhibitors” (Incyte Corporation, priority 2016, dated 2022).

Experiment [1] has as its target PI3Kγ (p110γ) Recombinant Human Protein (Homo sapiens (Human), UniProt P48736). The experiment in a line: PI3K-γ Scintillation Proximity Assay. The format is biochemical. The following applies: read-out: PI3K-gamma SPA IC50. An excerpt: Example B. PI3K-γ Scintillation Proximity Assay
[γ-^33P]ATP (10 mCi/mL) and Wheat Germ Agglutinin (WGA) YSi SPA Scintillation Beads was purchased from Perkin-Elmer (Waltham, Mass.). Lipid kinase substrate, D-myo-Phosphatidylinositol 4,5-bisphosphate (PtdIns(4,5)P2)D (+)-sn-1,2-di-O-octanoylglyceryl, 3-O-phospho linked (PIP2), CAS 204858-53-7, was purchased from Echelon Biosciences (Salt Lake City, Utah). PI3Kγ (p110γ) Recombinant Human Protein was purchased from Life technology (Grand Island, N.Y.). ATP, MgCl2, DTT, EDTA, MOPS and CHAPS were purchased from Sigma-Aldrich (St. Louis, Mo.).
(§1) The kinase reaction was conducted in polystyrene 384-well Greiner Bio-one white plate from Thermo Fisher Scientific in a final volume of 25 μL. Inhibitors were first diluted serially in DMSO and added to the plate wells before the addition of other reaction components. The final concentration of DMSO in the assay was 2%. The PI3Kγ assay was carried out at room temperature in 20 mM MOPS, pH 6.7, 10 mM MgCl2, 5 mM DTT and CHAPS 0.03%. Reactions were initiated by the addition of ATP, the final reaction mixture consisted of 20 μM PIP2, 2 μM ATP, 0.5 μCi [γ-^33P] ATP, 13 nM PI3Kγ. Reactions were incubated for 120 min and terminated by the addition of 40 μL SPA beads suspended in quench buffer: 163 mM potassium phosphate pH 7.8, 20% glycerol, 25 mM EDTA. The final concentration of SPA beads is 1.0 mg/mL. After the plate sealing, plates were shaken overnight at room temperature and centrifuged at 1500 rpm for 10 min, the radioactivity of the product was determined by scintillation counting on Topcount (Perkin-Elmer). IC50 determination was performed by fitting the curve of percent of the solvent control activity versus the log of the inhibitor concentration using the GraphPad Prism 6.0 software.
For orientation: In a scintillation proximity assay essentially only radioactivity close to the scintillant gives light.

In experiment [2] the target is PI3Kδ (p110δ/p85α) Recombinant Human Protein (Homo sapiens (Human), UniProt O00329). The experiment in a line: PI3Kδ Scintillation Proximity Assay. The format is biochemical. The following applies: read-out: PI3K-delta SPA IC50.
Excerpt: Example C. PI3Kδ Scintillation Proximity Assay
[γ-^33P]ATP (10 mCi/mL) and Wheat Germ Agglutinin (WGA) YSi SPA Scintillation Beads was purchased from Perkin-Elmer (Waltham, Mass.). Lipid kinase substrate, D-myo-Phosphatidylinositol 4,5-bisphosphate (PtdIns(4,5)P2)D (+)-sn-1,2-di-O-octanoylglyceryl, 3-O-phospho linked (PIP2), CAS 204858-53-7, was purchased from Echelon Biosciences (Salt Lake City, Utah). PI3Kδ (p110δ/p85α) Recombinant Human Protein was purchased from Eurofins (St Charles, Mo.). ATP, MgCl2, DTT, EDTA, MOPS and CHAPS were purchased from Sigma-Aldrich (St. Louis, Mo.).
as §1, with “PI3Kδ” for “PI3Kγ”, “3.4” for “13”, “PI3Kδ.” for “PI3Kγ.”

Counter-ions that a name gives are not always drawn. A value given as a limit tells only on which side of the number the result lay.

PI3Kδ (p110δ/p85α) Recombinant Human Protein, sequence (O00329 whole entry): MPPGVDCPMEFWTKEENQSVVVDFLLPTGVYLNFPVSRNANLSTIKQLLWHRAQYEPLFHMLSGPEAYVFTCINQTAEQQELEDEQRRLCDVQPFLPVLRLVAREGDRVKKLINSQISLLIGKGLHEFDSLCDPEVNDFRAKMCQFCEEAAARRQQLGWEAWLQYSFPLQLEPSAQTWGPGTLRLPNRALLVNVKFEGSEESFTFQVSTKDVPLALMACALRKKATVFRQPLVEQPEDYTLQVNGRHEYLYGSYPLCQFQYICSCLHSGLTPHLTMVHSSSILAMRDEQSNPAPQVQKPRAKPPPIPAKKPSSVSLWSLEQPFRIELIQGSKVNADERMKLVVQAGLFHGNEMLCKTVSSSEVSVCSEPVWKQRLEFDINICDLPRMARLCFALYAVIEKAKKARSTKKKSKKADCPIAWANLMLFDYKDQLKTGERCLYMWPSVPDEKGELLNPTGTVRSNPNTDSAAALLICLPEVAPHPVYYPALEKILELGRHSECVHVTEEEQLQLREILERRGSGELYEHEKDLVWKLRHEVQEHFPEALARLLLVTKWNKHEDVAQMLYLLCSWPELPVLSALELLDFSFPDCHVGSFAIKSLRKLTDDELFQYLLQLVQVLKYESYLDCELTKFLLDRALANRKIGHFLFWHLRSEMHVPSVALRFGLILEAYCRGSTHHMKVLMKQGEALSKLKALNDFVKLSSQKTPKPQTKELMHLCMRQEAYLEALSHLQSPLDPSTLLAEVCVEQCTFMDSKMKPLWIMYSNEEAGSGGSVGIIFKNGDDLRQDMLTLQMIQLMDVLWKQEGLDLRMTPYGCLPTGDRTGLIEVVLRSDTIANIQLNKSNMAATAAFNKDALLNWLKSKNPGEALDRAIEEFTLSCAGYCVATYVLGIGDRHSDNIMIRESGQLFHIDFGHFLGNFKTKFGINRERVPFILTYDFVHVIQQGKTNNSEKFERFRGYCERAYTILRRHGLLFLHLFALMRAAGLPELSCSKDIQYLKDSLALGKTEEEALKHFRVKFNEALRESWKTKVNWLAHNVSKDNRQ
PI3Kδ (p110δ/p85α) Recombinant Human Protein, sequence (P27986 whole entry partner): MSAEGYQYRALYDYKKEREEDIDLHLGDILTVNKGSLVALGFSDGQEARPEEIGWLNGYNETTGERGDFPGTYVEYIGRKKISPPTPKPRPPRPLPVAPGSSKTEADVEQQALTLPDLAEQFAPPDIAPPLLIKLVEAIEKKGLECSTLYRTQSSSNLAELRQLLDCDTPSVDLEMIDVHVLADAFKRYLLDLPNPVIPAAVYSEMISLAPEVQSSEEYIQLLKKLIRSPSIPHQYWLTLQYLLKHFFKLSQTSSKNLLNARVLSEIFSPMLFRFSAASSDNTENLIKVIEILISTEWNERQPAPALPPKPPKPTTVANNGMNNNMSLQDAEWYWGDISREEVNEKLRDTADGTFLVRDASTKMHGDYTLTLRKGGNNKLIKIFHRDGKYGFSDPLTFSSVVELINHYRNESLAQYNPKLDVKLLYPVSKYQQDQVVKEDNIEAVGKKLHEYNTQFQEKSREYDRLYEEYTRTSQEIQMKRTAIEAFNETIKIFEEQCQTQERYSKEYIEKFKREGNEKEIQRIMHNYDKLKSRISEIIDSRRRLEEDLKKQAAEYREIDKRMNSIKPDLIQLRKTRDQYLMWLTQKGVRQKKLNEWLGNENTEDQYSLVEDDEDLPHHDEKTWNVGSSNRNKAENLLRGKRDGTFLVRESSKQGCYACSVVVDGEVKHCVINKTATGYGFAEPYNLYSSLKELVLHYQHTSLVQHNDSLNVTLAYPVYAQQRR
PI3Kγ (p110γ) Recombinant Human Protein, sequence (P48736 whole entry): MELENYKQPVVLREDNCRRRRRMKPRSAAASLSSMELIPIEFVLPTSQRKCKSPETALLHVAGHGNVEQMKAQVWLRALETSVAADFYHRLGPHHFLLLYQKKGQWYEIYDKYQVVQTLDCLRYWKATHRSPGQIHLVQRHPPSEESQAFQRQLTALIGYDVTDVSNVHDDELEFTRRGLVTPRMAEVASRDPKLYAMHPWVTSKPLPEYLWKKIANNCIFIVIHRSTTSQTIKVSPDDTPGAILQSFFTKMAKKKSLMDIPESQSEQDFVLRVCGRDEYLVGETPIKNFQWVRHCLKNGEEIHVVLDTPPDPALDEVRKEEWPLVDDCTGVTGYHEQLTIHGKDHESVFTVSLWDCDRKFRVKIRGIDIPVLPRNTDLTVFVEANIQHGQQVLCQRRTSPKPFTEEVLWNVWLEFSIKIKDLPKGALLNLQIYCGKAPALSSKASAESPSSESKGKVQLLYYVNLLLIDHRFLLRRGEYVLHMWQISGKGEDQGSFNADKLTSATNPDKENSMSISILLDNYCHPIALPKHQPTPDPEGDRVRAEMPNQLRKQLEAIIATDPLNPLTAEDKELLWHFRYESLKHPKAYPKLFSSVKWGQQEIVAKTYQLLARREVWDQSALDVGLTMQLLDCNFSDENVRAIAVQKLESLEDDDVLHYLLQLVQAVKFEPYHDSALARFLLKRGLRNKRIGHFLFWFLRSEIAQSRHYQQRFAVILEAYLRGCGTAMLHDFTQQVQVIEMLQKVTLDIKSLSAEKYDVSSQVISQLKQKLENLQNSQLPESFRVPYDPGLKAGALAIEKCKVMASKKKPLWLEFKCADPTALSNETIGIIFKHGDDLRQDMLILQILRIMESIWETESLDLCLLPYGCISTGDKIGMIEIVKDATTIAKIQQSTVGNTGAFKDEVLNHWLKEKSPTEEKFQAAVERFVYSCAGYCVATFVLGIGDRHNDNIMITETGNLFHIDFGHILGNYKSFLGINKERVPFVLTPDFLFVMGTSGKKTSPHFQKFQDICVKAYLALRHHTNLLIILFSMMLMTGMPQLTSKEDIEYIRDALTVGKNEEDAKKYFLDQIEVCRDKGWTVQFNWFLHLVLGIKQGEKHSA

`COC(=O)c1ccccc1Cn1cc(-c2ccnc(-c3ncc(-c4ccccc4)[nH]3)c2)cn1` [Example 30, Methyl 2-((4-(2-(5-phenyl-1H-imidazol-2-yl)pyridin-4-yl)-1H-pyrazol-1-yl)methyl)benzoate trifluoroacetate salt]: the IC50 in experiment [1] and in experiment [2] was over 500 nM each time.
In the case of `COC(=O)c1cccc(Cn2cc(-c3ccnc(-c4ncc(-c5ccccc5)[nH]4)c3)cn2)c1` [Example 31, Methyl 3-((4-(2-(5-phenyl-1H-imidazol-2-yl)pyridin-4-yl)-1H-pyrazol-1-yl)methyl)benzoate trifluoroacetate salt], the values for the IC50 in experiment [1] and in experiment [2] were at most 500 nM and over 500 nM, respectively.
On the same counts, the results for `COC(=O)c1ccc(Cn2cc(-c3ccnc(-c4ncc(-c5ccccc5)[nH]4)c3)cn2)cc1` [Example 32, Methyl 4-((4-(2-(5-phenyl-1H-imidazol-2-yl)pyridin-4-yl)-1H-pyrazol-1-yl)methyl)benzoate trifluoroacetate salt] are at most 500 nM and over 500 nM.
`O=C(O)c1ccccc1Cn1cc(-c2ccnc(-c3ncc(-c4ccccc4)[nH]3)c2)cn1` [Example 33, 2-((4-(2-(5-Phenyl-1H-imidazol-2-yl)pyridin-4-yl)-1H-pyrazol-1-yl)methyl)benzoic acid trifluoroacetate salt]: the IC50 was over 500 nM in experiment [1] and at most 500 nM in experiment [2].
The corresponding values for `O=C(O)c1cccc(Cn2cc(-c3ccnc(-c4ncc(-c5ccccc5)[nH]4)c3)cn2)c1` [Example 34, 3-((4-(2-(5-Phenyl-1H-imidazol-2-yl)pyridin-4-yl)-1H-pyrazol-1-yl)methyl)benzoic acid trifluoroacetate salt] are at most 500 nM and at most 500 nM.
The corresponding values for `O=C(O)c1ccc(Cn2cc(-c3ccnc(-c4ncc(-c5ccccc5)[nH]4)c3)cn2)cc1` [Example 35, 4-((4-(2-(5-Phenyl-1H-imidazol-2-yl)pyridin-4-yl)-1H-pyrazol-1-yl)methyl)benzoic acid trifluoroacetate salt] are at most 500 nM and at most 500 nM.
Take `CN1CCN(c2cncc(-c3ccnc(-c4ncc(-c5ccccc5)[nH]4)c3)c2)CC1` [Example 37, 5-(4-Methylpiperazin-1-yl)-2′-(5-phenyl-1H-imidazol-2-yl)-3,4′-bipyridin trifluoroacetate salt]: the IC50 in experiment [1] and in experiment [2] was over 500 nM in each case.
Regarding `c1ccc(-c2cnc(-c3cc(-c4ccc(N5CCOCC5)nc4)ccn3)[nH]2)cc1` [Example 41, 4-(2′-(5-Phenyl-1H-imidazol-2-yl)-3,4′-bipyridin-6-yl)morpholine trifluoroacetate salt], the IC50 in experiment [1] was over 500 nM; in experiment [2], at most 50 nM.
Turning to `CS(=O)(=O)n1cc(-c2ccnc(-c3ncc(-c4ccccc4)[nH]3)c2)cn1` [Example 44, 4-(1-(Methylsulfonyl)-1H-pyrazol-4-yl)-2-(5-phenyl-1H-imidazol-2-yl)pyridine trifluoroacetate salt], the values for the IC50 in experiment [1] and in experiment [2] were over 500 nM and at most 500 nM, respectively.
With `CCS(=O)(=O)n1cc(-c2ccnc(-c3ncc(-c4ccccc4)[nH]3)c2)cn1` [Example 45, 4-(1-(Ethylsulfonyl)-1H-pyrazol-4-yl)-2-(5-phenyl-1H-imidazol-2-yl)pyridine trifluoroacetate salt], the IC50 in experiment [1] and in experiment [2] was at most 500 nM each time.
Turning to `c1ccc(-c2cnc(-c3cc(-c4cnn(C5CCOCC5)c4)ccn3)[nH]2)cc1` [Example 47, 2-(5-Phenyl-1H-imidazol-2-yl)-4-(1-(tetrahydro-2H-pyran-4-yl)-1H-pyrazol-4-yl)pyridine trifluoroacetate salt], the IC50 was at most 500 nM in experiment [1] and at most 50 nM in experiment [2].
Turning to `NC(=O)Cn1cc(-c2ccnc(-c3ncc(-c4ccccc4)[nH]3)c2)cn1` [Example 48, 2-(4-(2-(5-Phenyl-1H-imidazol-2-yl)pyridin-4-yl)-1H-pyrazol-1-yl)acetamide trifluoroacetate salt], the IC50 in experiment [1] and in experiment [2] was over 500 nM in each case.
As for `CN(C)C(=O)Cn1cc(-c2ccnc(-c3ncc(-c4ccccc4)[nH]3)c2)cn1` [Example 49, N,N-Dimethyl-2-(4-(2-(5-phenyl-1H-imidazol-2-yl)pyridin-4-yl)-1H-pyrazol-1-yl)acetamide trifluoroacetate salt], the IC50 in experiment [1] and in experiment [2] was over 500 nM throughout.
For the compound `O=C(Cn1cc(-c2ccnc(-c3ncc(-c4ccccc4)[nH]3)c2)cn1)N1CCCC1` [Example 50, 2-(4-(2-(5-Phenyl-1H-imidazol-2-yl)pyridin-4-yl)-1H-pyrazol-1-yl)-1-(pyrrolidin-1-yl)ethanone trifluoroacetate salt], the IC50 in experiment [1] and in experiment [2] was over 500 nM in each case.
For the compound `O=C(Cn1cc(-c2ccnc(-c3ncc(-c4ccccc4)[nH]3)c2)cn1)N1CCOCC1` [Example 51, 1-Morpholino-2-(4-(2-(5-phenyl-1H-imidazol-2-yl)pyridin-4-yl)-1H-pyrazol-1-yl)ethanone trifluoroacetate salt], the IC50 in experiment [1] and in experiment [2] was over 500 nM each time.
Turning to `N#CCCn1cc(-c2ccnc(-c3ncc(-c4ccccc4)[nH]3)c2)cn1` [Example 52, 3-(4-(2-(5-Phenyl-1H-imidazol-2-yl)pyridin-4-yl)-1H-pyrazol-1-yl)propanenitrile trifluoroacetate salt], the IC50 in experiment [1] was over 500 nM; in experiment [2] it was at most 500 nM.
On the same counts, the results for `NC(=O)CCn1cc(-c2ccnc(-c3ncc(-c4ccccc4)[nH]3)c2)cn1` [Example 53, 3-(4-(2-(5-Phenyl-1H-imidazol-2-yl)pyridin-4-yl)-1H-pyrazol-1-yl)propanamide] are over 500 nM and over 500 nM.
With `CCOC(=O)CCn1cc(-c2ccnc(-c3ncc(-c4ccccc4)[nH]3)c2)cn1` [Example 55, Ethyl 3-(4-(2-(5-phenyl-1H-imidazol-2-yl)pyridin-4-yl)-1H-pyrazol-1-yl)propanoate trifluoroacetate salt], the IC50 in experiment [1] and in experiment [2] was at most 500 nM each time.
As for `O=C(O)CCn1cc(-c2ccnc(-c3ncc(-c4ccccc4)[nH]3)c2)cn1` [Example 57, 3-(4-(2-(5-Phenyl-1H-imidazol-2-yl)pyridin-4-yl)-1H-pyrazol-1-yl)propanoic acid trifluoroacetate salt], the figures for the IC50 in experiment [1] and in experiment [2] were at most 500 nM and at most 100 nM, respectively.
The corresponding values for `CNC(=O)CCn1cc(-c2ccnc(-c3ncc(-c4ccccc4)[nH]3)c2)cn1` [Example 58, N-Methyl-3-(4-(2-(5-phenyl-1H-imidazol-2-yl)pyridin-4-yl)-1H-pyrazol-1-yl)propanamide trifluoroacetate salt] are over 500 nM and over 500 nM.
On the same counts, the results for `O=C(CCn1cc(-c2ccnc(-c3ncc(-c4ccccc4)[nH]3)c2)cn1)NC1CCCC1` [Example 59, N-cyclopentyl-3-(4-(2-(5-phenyl-1H-imidazol-2-yl)pyridin-4-yl)-1H-pyrazol-1-yl)propanamide trifluoroacetate salt] are over 500 nM and over 500 nM.
On the same counts, the results for `COc1cncc(-c2ccnc(-c3cnc(N)[nH]3)c2)c1` [Example 61, 5-(5-Methoxy-3,4′-bipyridin-2′-yl)-1H-imidazol-2-amine] are over 500 nM and over 500 nM.
